Data as given in ChEMBL document CHEMBL3045349, “A comparative study on the interference of two herbicides in wheat and italian ryegrass and on their antioxidant activities and detoxification rates” (J Agric Food Chem, 2011).

Legend:
Shoot [1] = experiment: Drug level in Triticum aestivum (wheat) shoots compound administered at rate of 14 mf/flat measured 96 hr post treatment by HPLC; assay type: ADME
Shoot [2] = experiment: Drug level in Triticum aestivum (wheat) shoots compound administered at rate of 14 mf/flat measured 24 hr post treatment by HPLC; assay type: ADME
Lolium multiflorum [3] = experiment: Effect on MDA content in Lolium multiflorum (Italian ryegrass) shoots compound administered at rate of 14 mf/flat measured 72 hr post treatment (reference value: 0.67 uM/L); assay type: functional
Triticum aestivum [4] = experiment: Effect on MDA content in Triticum aestivum (wheat) shoots compound administered at rate of 14 mf/flat measured 72 hr post treatment (reference value: 0.050 uM/L); assay type: functional
Lolium multiflorum [5] = experiment: Effect on antioxidant enzyme system in Lolium multiflorum (Italian ryegrass) shoots assessed as glutathione S-transferase activity per mg protein compound administered at rate of 14 mf/flat measured 48 hr post treatment (reference value: 0.35 nmol/s per mg protein); assay type: functional
Lolium multiflorum [6] = experiment: Effect on antioxidant enzyme system in Lolium multiflorum (Italian ryegrass) shoots assessed as glutathione S-transferase activity per mg protein compound administered at rate of 14 mf/flat measured 24 hr post treatment (reference value: 0.34 nmol/s per mg protein); assay type: functional
Triticum aestivum [7] = experiment: Effect on antioxidant enzyme system in Triticum aestivum (wheat) shoots assessed as glutathione S-transferase activity per mg protein compound administered at rate of 14 mf/flat measured 48 hr post treatment (reference value: 2.3 nmol/s per mg protein); assay type: functional
Triticum aestivum [8] = experiment: Effect on antioxidant enzyme system in Triticum aestivum (wheat) shoots assessed as ascorbate peroxidase activity per mg protein compound administered at rate of 14 mf/flat measured 24 hr post treatment (reference value: 15.7 nmol/s per mg protein); assay type: functional
Triticum aestivum [9] = experiment: Drug level in Triticum aestivum (wheat) compound administered at rate of 14 mf/flat measured 24 hr post treatment by HPLC; assay type: ADME, organism-based; conditions: in vivo
Triticum aestivum [10] = experiment: Effect on antioxidant enzyme system in Triticum aestivum (wheat) shoots assessed as glutathione S-transferase activity per mg protein compound administered at rate of 14 mf/flat measured 24 hr post treatment (reference value: 2.7 nmol/s per mg protein); assay type: functional
Lolium multiflorum [11] = experiment: Effect on antioxidant enzyme system in Lolium multiflorum (Italian ryegrass) shoots assessed as glutathione reductase activity per mg protein compound administered at rate of 14 mf/flat measured 24 hr post treatment (reference value: 1.1 nmol/s per mg protein); assay type: functional
Triticum aestivum [12] = experiment: Effect on antioxidant enzyme system in Triticum aestivum (wheat) shoots assessed as glutathione reductase activity per mg protein compound administered at rate of 14 mf/flat measured 72 hr post treatment (reference value: 1.1 nmol/s per mg protein); assay type: functional
Triticum aestivum [13] = experiment: Effect on antioxidant enzyme system in Triticum aestivum (wheat) shoots assessed as glutathione reductase activity per mg protein compound administered at rate of 14 mf/flat measured 24 hr post treatment (reference value: 1.1 nmol/s per mg protein); assay type: functional
Lolium multiflorum [14] = experiment: Effect on antioxidant enzyme system in Lolium multiflorum (Italian ryegrass) shoots assessed as dehydroascorbate reductase activity per mg protein compound administered at rate of 14 mf/flat measured 48 hr post treatment (reference value: 3.6 nmol/s per mg protein); assay type: functional
Lolium multiflorum [15] = experiment: Effect on antioxidant enzyme system in Lolium multiflorum (Italian ryegrass) shoots assessed as dehydroascorbate reductase activity per mg protein compound administered at rate of 14 mf/flat measured 24 hr post treatment (reference value: 3.9 nmol/s per mg protein); assay type: functional
Triticum aestivum [16] = experiment: Effect on antioxidant enzyme system in Triticum aestivum (wheat) shoots assessed as dehydroascorbate reductase activity per mg protein compound administered at rate of 14 mf/flat measured 72 hr post treatment (reference value: 4.7 nmol/s per mg protein); assay type: functional
Lolium multiflorum [17] = experiment: Effect on photosynthetic activity in Lolium multiflorum (Italian ryegrass) shoots assessed as dark respiration rate measured by CO2 production compound administered at rate of 14 mf/flat measured 72 hr post treatment (reference value: -1.32 umol/m2/s); assay type: functional
Lolium multiflorum [18] = experiment: Effect on photosynthetic activity in Lolium multiflorum (Italian ryegrass) shoots assessed as dark respiration rate measured by CO2 production compound administered at rate of 14 mf/flat measured 24 hr post treatment (reference value: -1.51 umol/m2/s); assay type: functional
Shoot [19] = experiment: Drug level in Lolium multiflorum (Italian ryegrass) shoots compound administered at rate of 14 mf/flat measured 144 hr post treatment by HPLC; assay type: ADME
Shoot [20] = experiment: Drug level in Lolium multiflorum (Italian ryegrass) shoots compound administered at rate of 14 mf/flat measured 72 hr post treatment by HPLC; assay type: ADME
Lolium multiflorum [21] = experiment: Increase in MDA content in Lolium multiflorum (Italian ryegrass) shoots compound administered at rate of 14 mf/flat measured 72 hr post treatment; assay type: functional
Lolium multiflorum [22] = experiment: Increase in MDA content in Lolium multiflorum (Italian ryegrass) shoots compound administered at rate of 14 mf/flat measured 48 hr post treatment; assay type: functional
Lolium multiflorum [23] = experiment: Increase in glutathione S-transferase activity in Lolium multiflorum (Italian ryegrass) compound administered at rate of 14 mf/flat measured 24 hr post treatment; assay type: functional
Lolium multiflorum [24] = experiment: Increase in antioxidant enzyme system in Lolium multiflorum (Italian ryegrass) shoots assessed as increase in dehydroascorbate reductase activity compound administered at rate of 14 mf/flat measured 24 hr post treatment; assay type: functional
Triticum aestivum [25] = experiment: Increase in antioxidant enzyme system in Triticum aestivum (wheat) shoots assessed as increase in dehydroascorbate reductase activity compound administered at rate of 14 mf/flat measured 72 hr post treatment; assay type: functional
Triticum aestivum [26] = experiment: Increase in antioxidant enzyme system in Triticum aestivum (wheat) shoots assessed as increase in dehydroascorbate reductase activity compound administered at rate of 14 mf/flat measured 24 hr post treatment; assay type: functional
Triticum aestivum [27] = experiment: Effect on photosynthetic activity in Triticum aestivum (wheat) shoots assessed as leaf net photosynthesis rate measured by CO2 production compound administered at rate of 14 mf/flat measured 48 hr post treatment (reference value: 1.92 umol/m2/s); assay type: functional
Triticum aestivum [28] = experiment: Effect on antioxidant enzyme system in Triticum aestivum (wheat) shoots assessed as catalase activity per mg protein compound administered at rate of 14 mf/flat measured 72 hr post treatment (reference value: 0.13 nmol/s per mg protein); assay type: functional
Lolium multiflorum [29] = experiment: Effect on antioxidant enzyme system in Lolium multiflorum (Italian ryegrass) shoots assessed as ascorbate peroxidase activity per mg protein compound administered at rate of 14 mf/flat measured 24 hr post treatment (reference value: 12.5 nmol/s per mg protein); assay type: functional
Triticum aestivum [30] = experiment: Effect on antioxidant enzyme system in Triticum aestivum (wheat) shoots assessed as ascorbate peroxidase activity per mg protein compound administered at rate of 14 mf/flat measured 48 hr post treatment (reference value: 18.4 nmol/s per mg protein); assay type: functional
Lolium multiflorum [31] = experiment: Increase in antioxidant enzyme system in Lolium multiflorum (Italian ryegrass) shoots assessed as increase in ascorbate peroxidase activity compound administered at rate of 14 mf/flat measured 24 hr post treatment; assay type: functional
Triticum aestivum [32] = experiment: Increase in antioxidant enzyme system in Triticum aestivum (wheat) shoots assessed as increase in ascorbate peroxidase activity compound administered at rate of 14 mf/flat measured 24 hr post treatment; assay type: functional

Structure (SMILES)	Drug uptake (Shoot [1]) [ppm]	Drug uptake (Shoot [2]) [ppm]	Activity (Lolium multiflorum [3]) [µM]	Activity (Triticum aestivum [4]) [µM]	Activity (Lolium multiflorum [5]) [nmol/s/mg protein]	Activity (Lolium multiflorum [6]) [nmol/s/mg protein]	Activity (Triticum aestivum [7]) [nmol/s/mg protein]	Activity (Triticum aestivum [8]) [nmol/s/mg protein]	Drug uptake (Triticum aestivum [9]) [ppm]	Activity (Triticum aestivum [10]) [nmol/s/mg protein]	Activity (Lolium multiflorum [11]) [nmol/s/mg protein]	Activity (Triticum aestivum [12]) [nmol/s/mg protein]	Activity (Triticum aestivum [13]) [nmol/s/mg protein]	Activity (Lolium multiflorum [14]) [nmol/s/mg protein]	Activity (Lolium multiflorum [15]) [nmol/s/mg protein]	Activity (Triticum aestivum [16]) [nmol/s/mg protein]	Activity (Lolium multiflorum [17]) [micromol/m2/s]	Activity (Lolium multiflorum [18]) [micromol/m2/s]	Drug uptake (Shoot [19]) [ppm]	Drug uptake (Shoot [20]) [ppm]	further results
CCNc1nc(Cl)nc(NC(C)C)n1 [ATRAZINE]	1.94	1.38	0.74	0.057	0.71	0.46	1.7	22	2.26	1.7	1.4	1	1.5	3.5	4.5	5.7	-1.67	-1.32	3.11	4.52	Activity (Lolium multiflorum [21]): 10%; Activity (Lolium multiflorum [22]): 31%; Activity (Lolium multiflorum [23]): 35%; Activity (Lolium multiflorum [24]): 15%; Activity (Triticum aestivum [25]): 21%; Activity (Triticum aestivum [26]): 20%; Activity (Triticum aestivum [27]): 0.22 micromol/m2/s; Activity (Triticum aestivum [28]): 0.12 nmol/s; Activity (Lolium multiflorum [29]): 15 nmol/s/mg protein; Activity (Triticum aestivum [30]): 23.5 nmol/s/mg protein; Activity (Lolium multiflorum [31]): 20%; Activity (Triticum aestivum [32]): 40%
O=[N+]([O-])c1ccc(Oc2ccc(C(F)(F)F)cc2[N+](=O)[O-])cc1 [FLUORODIFEN]	0.08	1.64	0.74	0.049	1.65	0.67	2.2	22.9	0.44	2.3	1.9	1	1.5	4.3	4.2	6.8	-1.06	-1.42	0.2	0.46	Activity (Lolium multiflorum [21]): 10%; Activity (Lolium multiflorum [22]): 14%; Activity (Lolium multiflorum [23]): 97%; Activity (Lolium multiflorum [24]): 8%; Activity (Triticum aestivum [25]): 45%; Activity (Triticum aestivum [26]): 9%; Activity (Triticum aestivum [27]): 2.13 micromol/m2/s; Activity (Triticum aestivum [28]): 0.14 nmol/s; Activity (Lolium multiflorum [29]): 13.9 nmol/s/mg protein; Activity (Triticum aestivum [30]): 20.2 nmol/s/mg protein; Activity (Lolium multiflorum [31]): 11%; Activity (Triticum aestivum [32]): 46%
